According to US11628163B2, “1-piperidinepropionic acid for treating a fibrosing disease” (UNIVERSITÀ DEGLI STUDI DI PADOVA, priority 2017, dated 2023):
Entries after “also recorded” stand apart in the source; their conditions may differ.

Experiments:
[1] = tested on: experimental murine model of steatohepatitis (NASH); test: Murine model of steatohepatitis (NASH): methionine- and choline-deficient diet (MCD), SerpinB3-transgenic and wild-type (C57BL/7) mice; type: in vivo; details: for liver histology: steatosis and lobular damage / relative liver weight (liver weight/body weight): MCD diet 8 weeks, i.p. daily from Week 4, PPA 0.01 μg/g or Curcumin 0.2 mg/g; for liver histology: steatosis and lobular damage: especially transgenic mice liver; for relative liver weight (liver weight/body weight): wild-type and SerpinB3-transgenic mice, more evident in transgenic mice
Description: PPA effect was also assessed in a murine model of fibrosing disease, in particular an experimental model of non-alcoholic steatohepatitis, which is a condition in which a fatty liver, associated with inflammation and fibrosis production, causes, among other things, a high risk of neoplastic transformation. In the study, both SerpinB3-transgenic mice and the respective wild-type (C57BL/7) strain were used, fed for 8 weeks with a methionine- and choline-deficient diet (MCD), which constitutes a recognized steatohepatitis induction model, or with a normal diet. MCD diet-treated transgenic and control mice groups starting from Week 4, were administered daily by intraperitoneal route, PPA (0.01 μg/g), or Curcumin (a molecule with a recognized anti-inflammatory and anti-fibrotic activity in animal models) as control, at standard concentrations (0.2 mg/g).
To assess PPA effect as SerpinB3 inhibitor in an experimental murine model of steatohepatitis (NASH), a condition with a high risk of hepatic tumor, both SerpinB3-transgenic mice and the respective wild-type (C57BL/7) strain were used.
The animals were fed for 8 weeks with a methionine- and choline-deficient diet (MCD), a recognized steatohepatitis induction model, or with a normal diet. MCD diet-treated transgenic and control mice groups, starting from Week 4, were administered daily, by intraperitoneal route, PPA (0.01 μg/g), or Curcumin (a molecule with a recognized anti-inflammatory and anti-fibrotic activity in animal models) as control, at the standard concentration of 0.2 mg/g. […] This effect was more evident in transgenic mice.

SerpinB3 = SerpinB3 mRNA expression in HT29 tumor cells (real-time PCR); type: cell-based; details: 24 hours
Description: HT29 tumor cells, constitutively expressing SerpinB3, were used, […] cells/well were seeded into 6-well plates and kept 24 hours prior to treatment in modified McCoy medium (Sigma-Aldrich, Milan, Italy) supplemented with heat-inactivated 10% fetal calf serum, (Sigma-Aldrich, Milan, Italy), 100 U/ mL penicillin, […] streptomycin, and 20 mM L-glutamine (Sigma-Aldrich, Milan, Italy),
Then, PPA (1′-piperidinepropionic acid) was added, at a concentration of 100 ng/ml alone or in combination with recombinant SerpinB3 (SB3) at a concentration of 200 ng/ml, whereas the medium alone (untreated HT-29 cells) was added into control wells. After 24 hours of treatment cells were harvested, and extraction of total cell RNA and reverse transcription were performed according to standard protocols. mRNA SerpinB3 levels were measured by real-time PCR (sense: 5′-GCAAATGCTCCAGAAGAAAG-3′; reverse 5′-CGA GGC AAA ATGAAAA AGA TG-3′) and the results were normalized on the basis of data obtained with housekeeping HPRT1 (sense 5′-TCAGGCAGTATAATCC AAAGATGGT-3′; reverse 5′-[…] -3′).

primary human monocytes = test: Release of soluble CD163 (sCD163) by primary human monocytes; type: cell-based
Description: PPA effect was evaluated in this context as well, where primary monocytes incubated 1 week with SerpinB3 at a concentration of 200 ng/ml alone, or in association with PPA (100 ng/ml) were used. Monocytes kept in culture medium and monocytes treated with PPA alone at the same concentrations were used as controls.

[2] = SerpinB3 transgenic mice, MCD diet, PPA 0.01 μg/g i.p. daily from Week 4

Row | Molecule | liver histology: steatosis and lobular damage [1] | liver histology: steatosis and lobular damage ([1]; listed as curcumin) | relative liver weight (liver weight/body weight) ([1]; listed as curcumin) | reduction of the inflammatory response ([1]; MCD diet, Curcumin 0.2 mg/g i.p. daily from Week 4) | relative liver weight (liver weight/body weight) [1] | IL-1 beta gene expression [1, 2] | Mcp1 gene expression [1, 2] | TNF-alpha gene expression [1, 2] | alpha-SMA (marker of stellate cell activation) gene expression ([1]; both strains (wild-type and SerpinB3-transgenic), MCD diet, PPA 0.01 μg/g i.p. daily from Week 4) | SerpinB3 expression (mRNA) after induction from exogenous SerpinB3 (SerpinB3; PPA 100 ng/ml + recombinant SerpinB3 200 ng/ml) | SerpinB3 expression (mRNA), constitutive (SerpinB3; PPA 100 ng/ml alone, normalized to HPRT1) | sCD163 release in the culture medium after stimulation with SerpinB3 (primary human monocytes; primary monocytes, 1 week, SerpinB3 200 ng/ml + PPA 100 ng/ml) | spontaneous release of sCD163 (primary human monocytes; primary monocytes, PPA alone 100 ng/ml, compared with untreated monocytes) | SerpinB3 expression (mRNA) after treatment with exogenous SerpinB3 (SerpinB3; recombinant SerpinB3 200 ng/ml) | release of sCD163 induced by SerpinB3 (primary human monocytes; primary human monocytes, SerpinB3 200 ng/ml, preliminary results)
1 | COc1cc(/C=C/C(=O)CC(=O)/C=C/c2ccc(O)c(OC)c2)ccc1O [Curcumin, reference compound] | reduced | more marked steatosis, associated with a higher relative liver weight, compared to mice MCD diet-fed, but treated with PPA or curcumin | higher relative liver weight, compared to mice MCD diet-fed, but treated with PPA or curcumin | obtained also with curcumin | – | – | – | – | – | – | – | – | – | – | –
2 | O=C(O)CCN1CCCCC1 [PPA, 1-piperidinepropionic acid] | reduced; also recorded: more marked steatosis, associated with a higher relative liver weight, compared to mice MCD diet-fed, but treated with PPA or curcumin | – | – | – | reduced; also recorded: higher relative liver weight, compared to mice MCD diet-fed, but treated with PPA or curcumin; also recorded: higher relative liver weight (liver weight/body weight) after MCD diet, compared to mice treated with the same diet | significant decrease | significant decrease | increase was non-evident; also recorded: increase proved not evident | marked reduction | significantly reduce | significantly reduce; also recorded: inhibit SerpinB3 synthesis | markedly reduced | reduces | – | –
3 | SerpinB3: recombinant SerpinB3 (Squamous Cell Carcinoma Antigen, SCCA1), a serine protease inhibitor, added as exogenous stimulus (protein, UniProt P29508 1-390, looked up) Serpin B3: MNSLSEANTKFMFDLFQQFRKSKENNIFYSPISITSALGMVLLGAKDNTAQQIKKVLHFDQVTENTTGKAATYHVDRSGNVHHQFQKLLTEFNKSTDAYELKIANKLFGEKTYLFLQEYLDAIKKFYQTSVESVDFANAPEESRKKINSWVESQTNEKIKNLIPEGNIGSNTTLVLVNAIYFKGQWEKKFNKEDTKEEKFWPNKNTYKSIQMMRQYTSFHFASLEDVQAKVLEIPYKGKDLSMIVLLPNEIDGLQKLEEKLTAEKLMEWTSLQNMRETRVDLHLPRFKVEESYDLKDTLRTMGMVDIFNGDADLSGMTGSRGLVLSGVLHKAFVEVTEEGAEAAAATAVVGFGSSPTSTNEEFHCNHPFLFFIRQNKTNSILFYGRFSSP | – | – | – | – | – | – | – | – | – | – | – | – | – | increased | induces the release
